From PMC3034772 (Pharmaceutical research, 2010)
Several values for one entry are separate records, joined by “and”; a condition that tells them apart may be missing. Equal values may be shown once. Read-outs that look alike come from different tables or passages of the source.

Columns and labels:
[1] = PAMPA; for Pm^7.4: pH 7.4
[2] = In combo PAMPA-BBB model, calculated log Po in situ
[3] = Charge class Q, dominant calculated charge state at pH 7.4; format: physicochemical
[4] = PAMPA; for Pm^7.4: pH 7.4; remark: listed apart in the source
[5] = difference observed minus calculated, external set, no efflux inhibition
[6] = dominant calculated concentration fraction of the drug in a charge state

Molecule	log Ppara [1]	Pm^7.4 [1]	Q (charge class) [3, 6]	also measured
Cn1cnc2c1c(=O)[nH]c(=O)n2C [Theobromine]	−6.94	0.01	0	log PABL [1]: −4.45; log Po [1]: −8.00; obs–calc (log Po^in situ) [2, 5]: 1.1
CN1CCN(C2=Nc3cc(Cl)ccc3Nc3ccccc32)CC1 [Clozapine]	−5.74	632	+	log PABL [1]: −3.37; log Po [1]: −2.58; obs–calc (log Po^in situ) ([2]; efflux inhibition mdr1a(−/−)): −0.5
O=C1NC(=O)C(c2ccccc2)(c2ccccc2)N1 [Phenytoin]	−6.93	41	0	log PABL [1]: −4.51; log Po [1]: −4.34; obs–calc (log Po^in situ) ([2]; efflux inhibition mdr1a(−/−)): −0.3; obs–calc (log Po^in situ) ([2]; no efflux inhibition): −0.4 and −0.3 and −0.2
Cc1nc2n(c(=O)c1CCN1CCC(c3noc4cc(F)ccc34)CC1)CCCC2 [Risperidone]				obs–calc (log Po^in situ) [2]: 0.8; Q (charge class) [3]: +
CC(C)NCC(O)COc1cccc2ccccc12 (centres unmarked) [Propranolol]		87	+	
CC(=O)O[C@H]1C(=O)[C@@]2(C)[C@H]([C@H](OC(=O)c3ccccc3)[C@]3(O)C[C@H](OC(=O)[C@H](O)[C@@H](NC(=O)c4ccccc4)c4ccccc4)C(C)=C1C3(C)C)[C@]1(OC(C)=O)CO[C@@H]1C[C@@H]2O [Paclitaxel]			0	obs–calc (log Po^in situ) [2, 5]: −1.9
COc1ccc(Cl)cc1C(=O)NCCc1ccc(S(=O)(=O)NC(=O)NC2CCCCC2)cc1 [Glibenclamide]			−	Pm^7.4 [4]: 15
O=C(O)COCCN1CCN(C(c2ccccc2)c2ccc(Cl)cc2)CC1 (centres unmarked) [Cetirizine]			±	
CC(C)(C(=O)O)c1ccc(C(O)CCCN2CCC(C(O)(c3ccccc3)c3ccccc3)CC2)cc1 (centres unmarked) [Fexofenadine]			±	
COc1cc([C@@H]2c3cc4c(cc3[C@@H](O[C@@H]3O[C@@H]5CO[C@@H](C)O[C@H]5[C@H](O)[C@H]3O)[C@H]3COC(=O)[C@H]23)OCO4)cc(OC)c1O [Etoposide]	−6.85	0.6	0	log PABL [1]: −4.62; log Po [1]: −6.17; obs–calc (log Po^in situ) ([2]; efflux inhibition mdr1a(−/−)): 0.1; obs–calc (log Po^in situ) ([2]; no efflux inhibition): −0.1
CNCCCC12CCC(c3ccccc31)c1ccccc12 [Maprotiline]	−5.51	311	+	log PABL [1]: −3.21; log Po [1]: −0.56; obs–calc (log Po^in situ) ([2]; no efflux inhibition): 0.2
Cn1c(=O)c2[nH]cnc2n(C)c1=O [Theophylline]				Q (charge class) [3]: 0
COc1ccc2cc([C@H](C)C(=O)O)ccc2c1 [Naproxen]			−	
C[C@]12CC[C@H]3[C@@H](CCC4=CC(=O)CC[C@@]43C)[C@@H]1CC[C@@H]2O [Testosterone]				Q (charge class) [3]: 0
[D-Pen^2,5]-Enkephalin [DPDPE]				Q (charge class) [3]: ±
OCCN(CCO)c1nc(N2CCCCC2)c2nc(N(CCO)CCO)nc(N3CCCCC3)c2n1 [Dipyridamole]			0	
CC(C)Cc1ccc(C(C)C(=O)O)cc1 (centres unmarked) [Ibuprofen]			−	
C[C@H]1O[C@@H](O[C@H]2[C@@H](O)C[C@H](O[C@H]3[C@@H](O)C[C@H](O[C@H]4CC[C@@]5(C)[C@H](CC[C@@H]6[C@@H]5C[C@@H](O)[C@]5(C)[C@@H](C7=CC(=O)OC7)CC[C@]65O)C4)O[C@@H]3C)O[C@@H]2C)C[C@H](O)[C@@H]1O [Digoxin]				Q (charge class) [3]: 0
CN(C)CCCC1(c2ccc(F)cc2)OCc2cc(C#N)ccc21 (centres unmarked) [Citalopram]		99	+	
CC[C@H](C)C(=O)O[C@H]1C[C@@H](C)C=C2C=C[C@H](C)[C@H](CC[C@@H](O)C[C@@H](O)CC(=O)O)[C@H]21 [Lovastatin Acid]			−	
OCCN1CCN(CCCN2c3ccccc3Sc3ccc(Cl)cc32)CC1 [Perphenazine]	−5.64	1612	+	log PABL [1]: −3.42; log Po [1]: −1.66; obs–calc (log Po^in situ) [2, 5]: −0.9
Cn1c(=O)c2c(ncn2C)n(C)c1=O [Caffeine]		1	0	
CN1C(=O)CN=C(c2ccccc2)c2cc(Cl)ccc21 [Diazepam]				Q (charge class) [3]: 0

Molecule	log Ppara [1]	Pm^7.4 [1]	Q (charge class) [3, 6]	also measured
CN(C)CCOC(c1ccccc1)c1ccccc1 [Diphenhydramine]			+	
O=C(CCCN1CCC(O)(c2ccc(Cl)cc2)CC1)c1ccc(F)cc1 [Haloperidol]	−4.68	464	+	log PABL [1]: −3.38; log Po [1]: −2.06; obs–calc (log Po^in situ) ([2]; no efflux inhibition): −0.3
CCN(CC)CCNC(=O)c1cc(Cl)c(N)cc1OC [Metoclopramide]		380	+	
Nc1nnc(-c2cccc(Cl)c2Cl)c(N)n1 [Lamotrigine]				pKa (physchem): 5.38
COc1ccc([C@@H]2Sc3ccccc3N(CCN(C)C)C(=O)[C@@H]2OC(C)=O)cc1 [Diltiazem]			+	
CCN(CC)CC(=O)Nc1c(C)cccc1C [Lidocaine]			+	
Clc1ccc2c(c1)C(N1CCNCC1)=Nc1ccccc1O2 [Amoxapine]	−5.98	289	+	log PABL [1]: −3.26; log Po [1]: −2.37; obs–calc (log Po^in situ) ([2]; no efflux inhibition): −0.4
CC(C)(C)NC(=O)[C@@H]1C[C@@H]2CCCC[C@@H]2CN1C[C@@H](O)[C@H](Cc1ccccc1)NC(=O)[C@H](CC(N)=O)NC(=O)c1ccc2ccccc2n1 [Saquinavir]			0	obs–calc (log Po^in situ) [2, 5]: −0.1; obs–calc (log Po^in situ) ([2]; efflux inhibition mdr1a(−/−)): 0.5; log Po [4]: −3.82; Pm^7.4 [4]: 114
COc1cc2c(c(OC)c1OC)-c1ccc(OC)c(=O)cc1[C@@H](NC(C)=O)CC2 [Colchicine]				Q (charge class) [3]: 0
CCCCNC(=O)NS(=O)(=O)c1ccc(C)cc1 [Tolbutamide]			−	
C=C[C@H]1C[N@@]2CC[C@H]1C[C@H]2[C@H](O)c1ccnc2ccc(OC)cc12 [Quinine]			+	
CC(NC(C)(C)C)C(=O)c1cccc(Cl)c1 (centres unmarked) [Bupropion]		101	+	obs–calc (log Po^in situ) ([2]; no efflux inhibition): 0.9
CN1CC[C@]23c4c5ccc(O)c4O[C@H]2[C@@H](O)C=C[C@H]3[C@H]1C5 [Morphine]				Q (charge class) [3]: +
C[C@]12C[C@H](O)[C@H]3[C@@H](CCC4=CC(=O)CC[C@@]43C)[C@@H]1CC[C@@H]2C(=O)CO [Corticosterone]			0	
CN(C)CCC=C1c2ccccc2CCc2ccccc21 [Amitriptyline]	−6.38	435	+	log Po [1]: −1.27; obs–calc (log Po^in situ) ([2]; efflux inhibition mdr1a(−/−)): 0.1; obs–calc (log Po^in situ) ([2]; no efflux inhibition): −0.3 and −0.2
COc1ccc2c(c1)c(CC(=O)O)c(C)n2C(=O)c1ccc(Cl)cc1 [Indomethacin]	−5.68	3	−	log PABL [1]: −2.67; log Po [1]: −2.67
Cc1cc(=O)n(-c2ccccc2)n1C [Antipyrine]	−6.86			log PABL [1]: −4.46; log Po [1]: −6.14; Q (charge class) [3]: 0
CN1CCN(C2=Nc3ccccc3Oc3ccc(Cl)cc32)CC1 [Loxapine]		829		pKa (physchem): 7.78
C[C@]12CCC(=O)C=C1CC[C@@H]1[C@@H]2[C@@H](O)C[C@@]2(C)[C@H]1CC[C@]2(O)C(=O)CO [Hydrocortisone]			0	
CC(=O)[C@H]1CC[C@H]2[C@@H]3CCC4=CC(=O)CC[C@]4(C)[C@H]3CC[C@]12C [Progesterone]	−6.20	263	0	log PABL [1]: −3.25; log Po [1]: −3.58; obs–calc (log Po^in situ) [2, 5]: −0.6
NC(=O)N1c2ccccc2C=Cc2ccccc21 [Carbamazepine]	−6.09	29	0	log PABL [1]: −3.25; obs–calc (log Po^in situ) ([2]; efflux inhibition mdr1a(−/−)): 0.6
CN(C)CCCN1c2ccccc2Sc2ccc(Cl)cc21 [Chlorpromazine]	−5.96	496	+	log PABL [1]: −3.10; log Po [1]: −1.46; obs–calc (log Po^in situ) ([2]; efflux inhibition mdr1a(−/−)): 0.2; obs–calc (log Po^in situ) ([2]; no efflux inhibition): 0.0 and 0.2
